The values below come from US20160106721A1, “HUMAN THERAPEUTIC AGENTS” (Life Plus, LLC, priority 2014, published 2016).

Assay [1] deals with human lung cancer cells (H358). The experiment in a line: cell death in lung cancer spheroids. It is filed as cell-based. As to conditions: 24 hour exposure, increasing doses. As for the experimental part: (§1) The respective cells were individually cultured in a growth medium prepared using RPMI-1640 medium containing 11.1 mM D-glucose with 10% fetal bovine serum, 10 mM HEPES, 2 mM L-glutamine, 1 mM sodium pyruvate, 0.05 mM 2-mercaptoethanol, and Antibiotic-Antimycotic. These cells were maintained in T75 tissue culture flasks in a humidified incubator at 37° C. and 5% CO2. The media were changed on a third day after cell plating, and the cells were passaged on day 5 by trypsinization.
(§2) Custom-made micromolds with 100 μm diameter wells were loaded with the cells (U.S. Pat. No. 8,735,154, incorporated by reference herein). The media were changed every day by partial replacement. Cell aggregates were allowed to form in the micromolds for 72 hours and then were transferred to a 100 mm non-treated tissue culture dishes for 3 additional days. The spheroids were passed through 70 μm and 100 μm cell strainers (#3431751 and #43152, Corning, Tewksbury, Mass.) and maintained in HEPES Balanced Salt Solution comprised of: 20 mM HEPES, 114 mM NaCl, 4.7 mM KCl, 1.2 mM KH2PO4, 1.16 mM MgSO4, 2.5 mM CaCl2, 25.5 mM NaHCO3 and 0.2% bovine serum albumin (fatty acid free), pH 7.2.
The lymphomas treatment methods used were identical to those described in Example 2 relative to the pediatric leukemia cells, whereas the lung cancer treatment method was the same as described in Example 1.

Assay [2] deals with human ovarian cancer cells (A1847). Nature of the assay: cell death in ovarian cancer spheroids. It counts as cell-based. To be noted: 24 hour exposure, increasing doses. The procedure:
as §1, §2
(§3) The cells were treated and tested as set forth in Example 1.

Assay [3] relates to human prostate cancer cells (22rv1). Nature of the assay: cell death in prostate cancer spheroids. To be noted: 24 hour exposure, increasing doses. It counts as cell-based. As for the experimental part: as §1, §2, §3
A further assay relates to ovarian cancer cells. As to conditions: low doses of doxorubicin alone (up to 0.158 μM). As for the experimental part:
In this test, the synergism of GZ17-6.02 with doxorubicin (a common chemotherapy drug) was tested on ovarian cancer cells. In this test, increasing doses of doxorubicin were administered to ovarian cancer spheroids and cell deaths were measured, as described in Example 1. The protocol involved testing doxorubicin alone at various dosages (FIG. 8, doxorubicin alone—closed circles), with comparative tests using the various dosages of doxorubicin in combination with either 0.2 mg/mL (FIG. 8 open circles) or 0.4 mg/mL (FIG. 8 closed triangles) GZ17-6.02. Additionally, the induced cell death results from use of 0.2 mg/mL GZ17-6.02 alone (FIG. 8, line A) and 0.4 mg/mL GZ17-6.02 alone (FIG. 8, line B) were determined.

Consider `COc1cccc(C=O)c1O` [O-vanillin], for which the “cell death / anticancer effect (cell number)” value (“cell death / anticancer effect” below) in assay [1], in assay [2] and in assay [3] was “demonstrated anticancer effects” throughout.
Consider `COc1cccc2c1C(=O)c1c(O)c3c(c(O)c1C2=O)C[C@@](O)(C(=O)CO)C[C@@H]3O[C@H]1C[C@H](N)[C@H](O)[C@H](C)O1` [doxorubicin], for which the “cell death, doxorubicin alone” value in the assay with ovarian cancer cells is “ineffective”.
For `COc1ccc2c3c([nH]c2c1)C(C)=NCC3` [harmaline], the “cell death / anticancer effect” value in assay [1], in assay [2] and in assay [3] was “demonstrated anticancer effects” each time.
As for `CC1=NCCc2c1[nH]c1cc(O)ccc21.Cl` [harmalol hydrochloride], the “cell death / anticancer effect” value in assay [1], in assay [2] and in assay [3] was “demonstrated anticancer effects” throughout.
Turning to `Cc1nccc2c1[nH]c1cc(O)ccc12.Cl` [harmole hydrochloride], the “cell death / anticancer effect” value in assay [1], in assay [2] and in assay [3] was “demonstrated anticancer effects” in each case.
With `COc1ccc(C(=O)O)cc1O` [isovanillic acid], the “cell death / anticancer effect” value in assay [1], in assay [2] and in assay [3] was “demonstrated anticancer effects” in each case.
As to `COc1ccc(CO)cc1O` [isovanillyl alcohol], the “cell death / anticancer effect” value in assay [1], in assay [2] and in assay [3] was “demonstrated anticancer effects” in each case.
Turning to `COc1ccc2c3c([nH]c2c1)[C@@H](C)NCC3` [tetrahydro-harmine], the “cell death / anticancer effect” value in assay [1], in assay [2] and in assay [3] was “demonstrated anticancer effects” in each case.
As to `COc1cc(C=O)ccc1O` [vanillin], the “cell death / anticancer effect” value in assay [1], in assay [2] and in assay [3] was “demonstrated anticancer effects” in each case.
